As usually defined, the AUC(0-inf) is total exposure, with the tail of the curve extrapolated. A higher AUC(0-inf) goes with more exposure.

This is an account of results in US20230174493A1, “Solid Dispersions of Amorphous 3,4-Diphenyl-4,5-Dihydro-1H-Pyrazole Derivatives, Compositions Comprising them and Uses Thereof as Cannabinoid CB1 Receptor Inhibitors” (INVERSAGO PHARMA INC., priority 2020, published 2023).

The nature of data set [1]: Pharmacokinetic properties in Beagle dogs, single oral dose compared with intravenous administration. The conditions noted are these: dog, in vivo, 2 mg/kg, fasted. As for the experimental part: Pharmacokinetic properties were measured in Beagle dogs. Administration was done orally and compared with intravenous administration (2 mg/kg, in DMSO/tetraglycol/PEG400/water, 10:20:25:45). Each formulation was tested as a single dose on three (3) animals except for F6(b), which was tested on five (5) animals. Dogs were sampled at times 0, 1 h, 4 h, 8 h, 12 h, 24 h, 36 h, 48 h, and 72 h to give full time-concentration profiles. All tests were carried out with fasted dogs except test on normal dogs using F-SEDDS, which was carried on fed dogs. The results are as presented as an average between the tested animals.

The nature of data set [2]: Solubility of crystalline form (development efforts).
The nature of data set [3]: Oral bioavailability of crystalline form (development efforts).

The structures appear in SMILES notation.

For `C/C(N)=N/C(=N\S(=O)(=O)c1ccc(C(F)(F)F)cc1)N1C[C@H](c2ccccc2)C(c2ccc(Cl)cc2)=N1` [Compound 1], the C0 in data set [1] (i.v. 2 mg/kg in DMSO/tetraglycol/PEG400/water 10:20:25:45, Normal dogs (about 11 kg)) amounted to 2220 ng/mL; in data set [1] (i.v. 2 mg/kg in DMSO/tetraglycol/PEG400/water 10:20:25:45, Small dogs (about 7.5 kg)) it was 1820 ng/mL. The molecule further gave an AUC(0-inf) in data set [1] (i.v. 2 mg/kg, Normal dogs (about 11 kg)) of 15400 ng·h/mL. Further, the half-life in data set [1] (i.v. 2 mg/kg, Normal dogs (about 11 kg), read-out: T½ (converted)) is 5.88 h. In data set [2], the Solubility result was “essentially insoluble”. For the same molecule, in data set [3], the Oral bioavailability result was “very poor oral bioavailability”.
